Assay results taken from PMC7229617, “N-alkylisatin-based microtubule destabilizers bind to the colchicine site on tubulin and retain efficacy in drug resistant acute lymphoblastic leukemia cell lines with less in vitro neurotoxicity” (Cancer Cell International, 2020).

Test system: T1, tubulin
T1 construct: gene TUBA1B; pure tubulin, alpha-beta heterodimer (colchicine site at alpha/beta interface); mixture of brain isotypes
Assay: fluorescence competition (displacement of MTC), Equigra V5.[…] fit
Assay type: binding
Conditions: colchicine site, competitive with MTC; 10 mM phosphate pH 7, 1 mM EDTA, 1.5 mM MgCl2, 0.1 mM GTP, 25 °C; printed exponent ambiguous (10^5 or 10^4), unreliable

Structure (SMILES): O=C1C(=O)N(Cc2cccc3ccccc23)c2c(Br)cc(Br)cc21 [N1M-isatin, 5,7-dibromo-N-(naphthalene-1-ylmethyl)isatin]
- Binding affinity (M^-1) ± SEM^a: 1.4 ± 0.2 × 10^5(× 10^4)
